Data from US20040180895A1, “Use of a pyridazinone derivative” (priority 2001, published 2004).

Experiments:
[1] = Elimination half-life of the active ingredient in man; settings: human, in vivo
Excerpt: The active ingredient of the invention may be administered periodically, e.g. weekly or biweekly, or daily or several times a day, depending on the patient's needs. […] Therefore, a periodical treatment, e.g. weekly, may be satisfactory.

plasma proteins = assay: Plasma protein binding; format: in vitro ADME; settings: read-out: bound to plasma proteins (converted)
Excerpt: It is known that the favourable hemodynamic effects following intravenous administration of levosimendan are seen considerably longer than levosimendan concentrations are observed in plasma. […] However, it has also been discovered that only about 30% of the active metabolite is bound to plasma proteins whereas as much as 98% of levosimendan is bound to plasma proteins. Therefore, the active free concentration of the active metabolite in plasma is proportionally much higher than that of levosimendan.

[2] = Plasma concentrations following 24 h levosimendan infusion in heart failure patients; format: in vivo, human; settings: levosimendan 0.2 μg/kg/min for 24 hours; for half-life: human, plasma, intravenous, 0.2 ug/kg, FIG. 1, read-out: elimination half-life (converted)
Experimental: Plasma concentrations of levosimendan and its active metabolite (R)-N-[4-(1,4,5,6-tetrahydro-4-methyl-6-oxo-3-pyridazinyl)phenyl]acetamide (OR-1896) following administration of 0.2 μg/kg/min of levosimendan for 24 hours in heart failure patients are shown in FIG. 1.

[3] = test system: congestive heart failure patients; assay: All-cause mortality (Kaplan Meier) in congestive heart failure patients, dobutamine controlled studies; format: in vivo, human; settings: intravenous levosimendan 0.1-0.2 μg/kg/min for 24 hours vs dobutamine; FIG. 2

SMILES	half-life [1] [h]	fraction unbound (plasma proteins)	half-life [2] [h]	time plasma concentrations are detectable after the infusion ([2]; FIG. 1) [days]	plasma concentrations after discontinuation of infusion ([2]; one day after discontinuation)	all-cause mortality (0-14 days), Kaplan Meier survival curves [3]
CC(=O)Nc1ccc(C2=NNC(=O)CC2C)cc1 (centres unmarked) [(I), N-[4-(1,4,5,6-tetrahydro-4-methyl-6-oxo-3-pyridazinyl)phenyl]acetamide]	~72					
CC(=O)Nc1ccc(C2=NNC(=O)C[C@H]2C)cc1 [OR-1896, (R)-N-[4-(1,4,5,6-tetrahydro-4-methyl-6-oxo-3-pyridazinyl)phenyl]acetamide]		~0.7	~77	12		
C[C@@H]1CC(=O)NN=C1c1ccc(NN=C(C#N)C#N)cc1 [levosimendan]		0.02	~1.3		not detectable one day after the discontinuation of infusion	survival curves are clearly diverging throughout the observation period
